Assay results: patent US8822464B2, “N-aryl-piperazine derivatives and their use as positive allosteric modulators of mGluR5 receptors” (Boehringer Ingelheim International GmbH, priority 2011, dated 2014)

What follows are compounds tested against T1, human recombinant mGluR5 (Homo sapiens, UniProt P41594) (assay: positive modulation of mGluR5, calcium based FLIPR assay in HEK 293 cells). Details: HEK 293 cell line expressing human recombinant mGluR5; peak height of Ca release fluorescence signal after glutamate at approximately 5% basal stimulation; nonlinear regression.
T1 construct: expressed in transfected cells; host or cells: HEK 293 cell line; cultured with tetracycline, hygromycin and geneticin; tetracycline withdrawn 3-7 days before the assay
Protocol: The positive modulation of mGluR5 is measured in a HEK 293 cell line expressing human recombinant mGluR5 and is detected with calcium based FLIPR assay. The cells are cultured with DMEM supplemented with 10% FCS, 2 μg/mL tetracycline, 100 μg/mL hygromycin and 500 μg/mL gneticin. The cell culture media is exchanged for tetracycline-free cell culture media 3-7 days before the assay. One day before the assay the cell culture medium is exchanged to DMEM without glutamine and phenol red and supplemented with 10% FCS, 100 μg/mL hygromycin and 500 μg/mL geneticin. On the assay day, the medium of the subconfluent cultures is removed and the cells are detached by addition of 2.5 ml EDTA(0.02%) per 175 cm2 culture flask for 1 minute. The cells are resuspend in Ringer solution (140 mM NaCl, 5 mM KCl, 2.5 mM CaCl2, 1.5 mM MgCl2, 5 mM Glucose, 10 mM Hepes; adjusted to pH 7.4 with NaOH), pooled and Ringer solution added to adjust the volume to 50 mL. The cell suspension is centrifuged for 5 min at 1500 U/min (425 g). The supernatant is removed and the cells washed a second time with 50 ml fresh Ringer solution and centrifuged again as before. The supernatant is again removed and the pellet resuspended in Ringer solution to 1,000,000 cells/ml (1×10^6 cells/mL). The cells are plated onto BD BioCoat Poly-D-Lysine 384 well plates (20.000 cells/well; 20 μl/well). The lid covered plates are then incubated until use at 37° C./10% CO2. For dye loading, 20 μl of Calcium-4 assay kit solution (prepared according to the manufacturer's description in Ringer solution) are added to the cells and the plates are incubated for 80 min 37° C. and then 10 min at room temperature.
Controls, Compound Dilution and Assay Execution:
Each assay plate contained wells with “high” and “low” controls:
Low controls 1% DMSO/ringer solution+basal glutamate activation (defined as 100% CTL).
High controls 10 μM CDPPB+basal glutamate activation (defined as 200% CTL).
Test compounds are dissolved and diluted in DMSO to 100-fold the desired concentrations. In a second step, the compounds are diluted in Ringer solution such that the compounds are 4-fold more concentrated than the desired final assay concentration. The final DMSO concentration was 1%.
20 μl of each compound solution are then transferred to the assay plate and the Ca2+ kinetic is measured to determine any intrinsic compound activity. After 5 min incubation in the FLIPR device, the second stimulation with 20 μl of glutamate in Ringer solution (glutamate concentration adjusted to approximately 5% basal stimulation of the maximal possible glutamate effect) is added and the kinetic Ca2+ response of the wells was measured for the modulation effect.
The peak height of the Ca release related fluorescence signal (9-66) is used for the EC50. The EC50 of the modulation is calculated over a nonlinear regression with GraphPad Prism (Table 1).

T1 sequence (P41594 21-1212): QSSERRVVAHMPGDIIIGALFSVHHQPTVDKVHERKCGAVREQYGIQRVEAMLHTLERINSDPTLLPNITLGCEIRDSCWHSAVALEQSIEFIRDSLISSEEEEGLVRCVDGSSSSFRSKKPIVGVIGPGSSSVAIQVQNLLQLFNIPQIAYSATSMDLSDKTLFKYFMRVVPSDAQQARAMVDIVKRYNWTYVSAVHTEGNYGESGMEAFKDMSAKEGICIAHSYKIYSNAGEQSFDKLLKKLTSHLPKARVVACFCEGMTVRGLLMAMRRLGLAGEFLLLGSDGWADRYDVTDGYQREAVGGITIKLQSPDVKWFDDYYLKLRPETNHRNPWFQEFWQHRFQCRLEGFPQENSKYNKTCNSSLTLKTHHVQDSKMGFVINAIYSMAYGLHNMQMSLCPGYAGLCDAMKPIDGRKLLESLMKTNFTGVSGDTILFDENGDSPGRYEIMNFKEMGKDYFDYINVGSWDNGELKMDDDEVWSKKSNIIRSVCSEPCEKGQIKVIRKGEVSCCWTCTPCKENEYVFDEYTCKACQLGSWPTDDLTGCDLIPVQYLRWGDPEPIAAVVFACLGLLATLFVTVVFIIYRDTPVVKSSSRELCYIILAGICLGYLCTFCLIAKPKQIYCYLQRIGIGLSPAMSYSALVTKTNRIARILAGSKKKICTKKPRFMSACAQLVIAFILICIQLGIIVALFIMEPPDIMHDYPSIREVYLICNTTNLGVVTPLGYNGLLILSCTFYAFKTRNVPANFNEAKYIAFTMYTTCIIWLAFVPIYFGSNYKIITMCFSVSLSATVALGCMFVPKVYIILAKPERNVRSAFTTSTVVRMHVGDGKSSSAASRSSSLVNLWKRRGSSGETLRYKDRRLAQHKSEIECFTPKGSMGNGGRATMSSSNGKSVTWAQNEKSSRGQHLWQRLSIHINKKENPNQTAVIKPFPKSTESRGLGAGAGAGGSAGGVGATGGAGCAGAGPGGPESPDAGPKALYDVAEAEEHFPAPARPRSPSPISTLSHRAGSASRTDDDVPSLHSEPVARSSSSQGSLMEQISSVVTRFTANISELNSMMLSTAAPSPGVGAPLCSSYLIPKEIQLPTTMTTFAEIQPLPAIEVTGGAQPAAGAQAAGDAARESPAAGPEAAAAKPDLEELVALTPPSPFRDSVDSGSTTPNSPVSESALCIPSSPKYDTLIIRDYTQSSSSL

SMILES	EC50
O=C(Cn1nc(-c2ccc(F)cn2)cc1-c1ccc(F)cc1)N1CCN(c2cccnn2)CC1 [Example 7.01.64]	677 nM
O=C(Cn1nc(-c2ccc(F)cc2)cc1-c1ccc(F)cn1)N1CCN(c2ncccn2)CC1 [Example 7.01.65]	253 nM
O=C(Cn1nc(-c2ccccc2)cc1-c1ccc(F)cn1)N1CCN(c2ncccn2)CC1 [Example 7.01.66]	957 nM
CCc1cc(-c2ccc(F)c(C)c2)nn1CC(=O)N1CCN(c2cc(OC)ccn2)CC1 [Example 7.01.68]	74 nM
CCc1cc(-c2ccc(F)c(C)c2)nn1CC(=O)N1CCN(c2ccccn2)CC1 [Example 7.01.69]	79 nM
CCc1cc(-c2ccc(F)cc2)nn1CC(=O)N1CCN(c2ccccn2)CC1 [Example 7.01.73]	419 nM
CCc1cc(-c2ccc(F)cc2)nn1CC(=O)N1CCN(c2ncccn2)CC1 [Example 7.01.74]	253 nM
CCc1cc(-c2ccc(F)cc2)nn1CC(=O)N1CCN(c2cc(OC)ccn2)CC1 [Example 7.01.75]	421 nM
CCc1cc(-c2ccc(F)cc2)nn1CC(=O)N1CCN(c2ncc(OC)cn2)CC1 [Example 7.01.76]	388 nM
CCc1cc(-c2ccc(F)cc2)nn1CC(=O)N1CCN(c2cc(OC)ncn2)CC1 [Example 7.01.77]	697 nM
CCc1cc(-c2ccc(F)cc2)nn1CC(=O)N1CCN(c2ncc(F)cn2)CC1 [Example 7.01.78]	723 nM
COc1ccnc(N2CCN(C(=O)Cn3nc(-c4ccc(F)cc4)cc3C(C)C)CC2)c1 [Example 7.01.85]	371 nM
COc1cc(N2CCN(C(=O)Cn3nc(-c4ccc(F)cc4)cc3C(C)C)CC2)ncn1 [Example 7.01.88]	366 nM
COc1cnc(N2CCN(C(=O)Cn3nc(-c4ccc(F)cc4)cc3C(C)C)CC2)nc1 [Example 7.01.89]	577 nM
CC(C)c1cc(-c2ccc(F)cc2)nn1CC(=O)N1CCN(c2ncccn2)CC1 [Example 7.01.90]	157 nM
CCc1cc(-c2ccc(C)c(C)c2)nn1CC(=O)N1CCN(c2ccccn2)CC1 [Example 7.01.91]	195 nM
CCc1cc(-c2ccc(C)c(C)c2)nn1CC(=O)N1CCN(c2cc(OC)ccn2)CC1 [Example 7.01.92]	302 nM
CCc1cc(-c2ccc(C)c(C)c2)nn1CC(=O)N1CCN(c2cc(OC)ncn2)CC1 [Example 7.01.93]	170 nM
CCc1cc(-c2cccc(C)c2)nn1CC(=O)N1CCN(c2ncccn2)CC1 [Example 7.01.94]	136 nM
CCc1cc(-c2cccc(C)c2)nn1CC(=O)N1CCN(c2ccccn2)CC1 [Example 7.01.95]	237 nM

Compounds with a lower EC50, results first:

EC50	SMILES
61 nM	CCc1cc(-c2ccc(F)c(C)c2)nn1CC(=O)N1CCN(c2cc(OC)ncn2)CC1 [Example 7.01.67]
41 nM	CCc1cc(-c2ccc(F)c(C)c2)nn1CC(=O)N1CCN(c2ncccn2)CC1 [Example 7.01.70]
51 nM	CCc1cc(-c2ccc(F)c(C)c2)nn1CC(=O)N1CCN(c2ncc(OC)cn2)CC1 [Example 7.01.71]
63 nM	CCc1cc(-c2ccc(F)c(C)c2)nn1CC(=O)N1CCN(c2ncc(F)cn2)CC1 [Example 7.01.72]
26 nM	CCCc1cc(-c2ccc(F)c(C)c2)nn1CC(=O)N1CCN(c2cc(OC)ncn2)CC1 [Example 7.01.79]
45 nM	CCCc1cc(-c2ccc(F)c(C)c2)nn1CC(=O)N1CCN(c2cc(OC)ccn2)CC1 [Example 7.01.80]
13 nM	CCCc1cc(-c2ccc(F)c(C)c2)nn1CC(=O)N1CCN(c2ncccn2)CC1 [Example 7.01.81]
33 nM	CCCc1cc(-c2ccc(F)c(C)c2)nn1CC(=O)N1CCN(c2ncc(OC)cn2)CC1 [Example 7.01.82]
52 nM	CCCc1cc(-c2ccc(F)c(C)c2)nn1CC(=O)N1CCN(c2ccccn2)CC1 [Example 7.01.83]
67 nM	CCCc1cc(-c2ccc(F)c(C)c2)nn1CC(=O)N1CCN(c2cccnn2)CC1 [Example 7.01.84]
69 nM	CCc1cc(-c2ccc(C)c(C)c2)nn1CC(=O)N1CCN(c2ncccn2)CC1 [Example 7.01.87]
